# Like-named read-outs stand apart in the source and are kept apart here.
# How the values were obtained:
# Test in all cases: KinomeScan kinase panel, single concentration 10 µM
# Format in all cases: binding
# KinomeScan kinase panel [1] = target: T1, KinomeScan kinase panel (Homo sapiens, UniProt Q9Y243); settings: AKT3, 10 µM; read-out: score (%)
# T1 construct: purchased DiscoveRx (KinomeScan)
# KinomeScan kinase panel [2] = target: T2, KinomeScan kinase panel (Homo sapiens, UniProt O15111); settings: IKK-alpha, 10 µM; read-out: score (%)
# T2 construct: purchased DiscoveRx (KinomeScan)
# T2 sequence (O15111 1-745): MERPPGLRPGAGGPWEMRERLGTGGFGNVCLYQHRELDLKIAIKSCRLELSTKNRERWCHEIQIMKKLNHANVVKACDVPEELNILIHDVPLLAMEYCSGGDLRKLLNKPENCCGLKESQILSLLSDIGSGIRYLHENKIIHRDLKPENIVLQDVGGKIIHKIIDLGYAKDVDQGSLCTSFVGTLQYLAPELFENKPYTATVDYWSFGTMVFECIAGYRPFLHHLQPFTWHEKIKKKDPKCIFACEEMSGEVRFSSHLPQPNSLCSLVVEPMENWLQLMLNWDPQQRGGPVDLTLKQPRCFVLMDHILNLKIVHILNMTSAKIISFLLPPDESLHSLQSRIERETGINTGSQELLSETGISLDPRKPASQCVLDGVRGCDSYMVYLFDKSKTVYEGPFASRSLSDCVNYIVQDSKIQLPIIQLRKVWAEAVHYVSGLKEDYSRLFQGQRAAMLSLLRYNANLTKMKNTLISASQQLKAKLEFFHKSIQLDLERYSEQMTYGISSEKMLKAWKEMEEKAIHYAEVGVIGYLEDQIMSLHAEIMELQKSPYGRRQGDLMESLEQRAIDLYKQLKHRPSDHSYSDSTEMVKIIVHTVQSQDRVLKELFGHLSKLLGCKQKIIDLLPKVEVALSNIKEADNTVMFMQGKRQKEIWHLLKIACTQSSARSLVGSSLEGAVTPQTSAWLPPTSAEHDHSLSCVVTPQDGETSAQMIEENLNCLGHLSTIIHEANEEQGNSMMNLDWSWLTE
# KinomeScan kinase panel [3] = target: T3, KinomeScan kinase panel (Homo sapiens, UniProt P45983); settings: JNK1, 10 µM
# T3 construct: purchased DiscoveRx (KinomeScan)
# KinomeScan kinase panel [4] = target: T4, KinomeScan kinase panel (Homo sapiens, UniProt P54646); settings: AMPK-alpha2, 10 µM; read-out: score (%)
# T4 construct: purchased DiscoveRx (KinomeScan)
# KinomeScan kinase panel [5] = target: T5, KinomeScan kinase panel (Homo sapiens, UniProt P29376); settings: LTK, 10 µM; read-out: score (%)
# T5 construct: purchased DiscoveRx (KinomeScan)
# KinomeScan kinase panel [6] = target: T6, KinomeScan kinase panel (Homo sapiens, UniProt P42338); settings: PIK3CB, 10 µM; read-out: score (%)
# T6 construct: purchased DiscoveRx (KinomeScan)
# KinomeScan kinase panel [7] = target: T7, KinomeScan kinase panel (Homo sapiens, UniProt P07332); settings: FES, 10 µM; read-out: score (%)
# T7 construct: purchased DiscoveRx (KinomeScan)
# KinomeScan kinase panel [8] = target: T8, KinomeScan kinase panel (Homo sapiens, UniProt O14578); settings: CIT, 10 µM
# T8 construct: purchased DiscoveRx (KinomeScan)
# KinomeScan kinase panel [9] = target: T9, KinomeScan kinase panel (Homo sapiens, UniProt P49841); settings: GSK3B, 10 µM; read-out: score (%)
# T9 construct: purchased DiscoveRx (KinomeScan)
# KinomeScan kinase panel [10] = target: T10, KinomeScan kinase panel (Homo sapiens, UniProt P23458)
# T10 construct: purchased DiscoveRx (KinomeScan)
# KinomeScan kinase panel [11] = target: T11, KinomeScan kinase panel (Homo sapiens, UniProt P29320); settings: EPHA3, 10 µM; read-out: score (%)
# T11 construct: purchased DiscoveRx (KinomeScan)
# T11 sequence (P29320 21-983): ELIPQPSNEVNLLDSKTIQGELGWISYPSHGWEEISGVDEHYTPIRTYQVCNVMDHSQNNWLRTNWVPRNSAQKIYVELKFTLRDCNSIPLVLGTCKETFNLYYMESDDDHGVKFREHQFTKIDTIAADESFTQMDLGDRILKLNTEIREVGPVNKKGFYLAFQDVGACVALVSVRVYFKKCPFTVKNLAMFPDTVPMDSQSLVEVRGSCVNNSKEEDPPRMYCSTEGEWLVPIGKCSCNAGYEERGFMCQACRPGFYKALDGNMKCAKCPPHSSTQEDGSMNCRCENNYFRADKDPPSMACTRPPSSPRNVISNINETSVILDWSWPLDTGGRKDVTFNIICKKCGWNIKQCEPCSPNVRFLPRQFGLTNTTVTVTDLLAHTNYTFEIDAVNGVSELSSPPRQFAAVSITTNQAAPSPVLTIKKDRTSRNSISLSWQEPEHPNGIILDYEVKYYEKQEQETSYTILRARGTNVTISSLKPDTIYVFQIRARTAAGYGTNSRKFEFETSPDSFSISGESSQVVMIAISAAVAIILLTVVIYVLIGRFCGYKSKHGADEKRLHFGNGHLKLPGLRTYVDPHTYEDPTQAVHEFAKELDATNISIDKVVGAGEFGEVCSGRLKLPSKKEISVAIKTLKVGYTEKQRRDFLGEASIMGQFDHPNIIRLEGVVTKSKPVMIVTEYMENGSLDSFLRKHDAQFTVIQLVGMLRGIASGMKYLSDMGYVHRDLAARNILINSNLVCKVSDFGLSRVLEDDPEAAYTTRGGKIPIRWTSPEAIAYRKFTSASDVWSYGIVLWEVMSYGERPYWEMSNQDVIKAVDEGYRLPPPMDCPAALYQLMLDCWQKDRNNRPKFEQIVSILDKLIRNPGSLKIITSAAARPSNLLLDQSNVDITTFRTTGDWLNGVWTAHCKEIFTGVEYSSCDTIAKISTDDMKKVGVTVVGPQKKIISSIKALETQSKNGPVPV
# KinomeScan kinase panel [12] = target: T12, KinomeScan kinase panel (Homo sapiens, UniProt P0C264); settings: read-out: score (%)
# T12 construct: purchased DiscoveRx (KinomeScan)
# T12 sequence (P0C264 1-359): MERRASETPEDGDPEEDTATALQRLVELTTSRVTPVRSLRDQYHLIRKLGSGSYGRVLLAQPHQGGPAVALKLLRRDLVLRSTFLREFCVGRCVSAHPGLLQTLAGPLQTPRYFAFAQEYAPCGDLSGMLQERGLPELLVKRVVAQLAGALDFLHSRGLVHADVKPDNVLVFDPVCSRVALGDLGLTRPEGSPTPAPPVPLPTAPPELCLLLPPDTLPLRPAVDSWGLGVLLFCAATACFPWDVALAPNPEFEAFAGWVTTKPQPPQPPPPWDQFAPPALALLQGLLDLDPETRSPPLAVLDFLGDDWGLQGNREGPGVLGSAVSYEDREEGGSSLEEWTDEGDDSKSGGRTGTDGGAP
# KinomeScan kinase panel [13] = target: T13, KinomeScan kinase panel (Homo sapiens, UniProt Q99755); settings: PIP5K1A, 10 µM; read-out: score (%)
# T13 construct: purchased DiscoveRx (KinomeScan)
# [14] = JAK1(JH1domain-catalytic), 10 µM
# T4 sequence (P54646 whole entry): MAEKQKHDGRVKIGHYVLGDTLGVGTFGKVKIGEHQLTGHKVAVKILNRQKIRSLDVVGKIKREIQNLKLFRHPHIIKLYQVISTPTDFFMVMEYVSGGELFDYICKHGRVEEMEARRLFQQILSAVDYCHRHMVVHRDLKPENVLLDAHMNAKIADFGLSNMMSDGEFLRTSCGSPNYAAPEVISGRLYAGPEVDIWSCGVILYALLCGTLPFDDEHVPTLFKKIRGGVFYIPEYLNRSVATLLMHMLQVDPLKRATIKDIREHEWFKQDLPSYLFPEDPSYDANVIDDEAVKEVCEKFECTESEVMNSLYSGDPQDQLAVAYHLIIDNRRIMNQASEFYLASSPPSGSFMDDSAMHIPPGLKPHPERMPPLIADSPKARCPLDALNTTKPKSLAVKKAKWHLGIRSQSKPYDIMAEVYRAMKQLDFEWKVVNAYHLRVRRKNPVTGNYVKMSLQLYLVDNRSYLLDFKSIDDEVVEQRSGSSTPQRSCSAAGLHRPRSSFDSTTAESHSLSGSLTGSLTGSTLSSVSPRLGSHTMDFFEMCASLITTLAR
# T1 sequence (Q9Y243 whole entry): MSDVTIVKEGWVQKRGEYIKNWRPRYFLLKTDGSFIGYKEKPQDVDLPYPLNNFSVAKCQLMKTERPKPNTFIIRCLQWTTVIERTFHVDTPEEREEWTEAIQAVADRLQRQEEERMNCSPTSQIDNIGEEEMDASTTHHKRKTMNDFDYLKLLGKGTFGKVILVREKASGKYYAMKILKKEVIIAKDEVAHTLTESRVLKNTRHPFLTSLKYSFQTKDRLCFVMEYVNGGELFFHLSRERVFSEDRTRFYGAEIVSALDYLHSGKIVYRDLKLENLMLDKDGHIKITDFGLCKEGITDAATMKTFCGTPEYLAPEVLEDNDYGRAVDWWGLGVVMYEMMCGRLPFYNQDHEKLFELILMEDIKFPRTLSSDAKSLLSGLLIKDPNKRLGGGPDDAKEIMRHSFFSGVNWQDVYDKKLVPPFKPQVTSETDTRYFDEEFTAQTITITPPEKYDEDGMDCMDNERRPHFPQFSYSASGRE
# T3 sequence (P45983 whole entry): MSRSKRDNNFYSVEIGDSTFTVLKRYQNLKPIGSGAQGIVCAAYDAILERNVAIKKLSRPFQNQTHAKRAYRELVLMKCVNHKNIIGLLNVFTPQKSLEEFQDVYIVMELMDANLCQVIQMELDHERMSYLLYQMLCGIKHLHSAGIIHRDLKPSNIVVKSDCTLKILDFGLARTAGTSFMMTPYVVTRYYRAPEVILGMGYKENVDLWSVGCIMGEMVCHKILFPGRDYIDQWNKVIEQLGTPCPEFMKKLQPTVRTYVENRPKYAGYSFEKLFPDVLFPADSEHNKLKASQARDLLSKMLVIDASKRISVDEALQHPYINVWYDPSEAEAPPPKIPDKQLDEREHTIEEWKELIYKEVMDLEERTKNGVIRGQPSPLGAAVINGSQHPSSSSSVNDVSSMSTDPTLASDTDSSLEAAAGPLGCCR
# T6 sequence (P42338 whole entry): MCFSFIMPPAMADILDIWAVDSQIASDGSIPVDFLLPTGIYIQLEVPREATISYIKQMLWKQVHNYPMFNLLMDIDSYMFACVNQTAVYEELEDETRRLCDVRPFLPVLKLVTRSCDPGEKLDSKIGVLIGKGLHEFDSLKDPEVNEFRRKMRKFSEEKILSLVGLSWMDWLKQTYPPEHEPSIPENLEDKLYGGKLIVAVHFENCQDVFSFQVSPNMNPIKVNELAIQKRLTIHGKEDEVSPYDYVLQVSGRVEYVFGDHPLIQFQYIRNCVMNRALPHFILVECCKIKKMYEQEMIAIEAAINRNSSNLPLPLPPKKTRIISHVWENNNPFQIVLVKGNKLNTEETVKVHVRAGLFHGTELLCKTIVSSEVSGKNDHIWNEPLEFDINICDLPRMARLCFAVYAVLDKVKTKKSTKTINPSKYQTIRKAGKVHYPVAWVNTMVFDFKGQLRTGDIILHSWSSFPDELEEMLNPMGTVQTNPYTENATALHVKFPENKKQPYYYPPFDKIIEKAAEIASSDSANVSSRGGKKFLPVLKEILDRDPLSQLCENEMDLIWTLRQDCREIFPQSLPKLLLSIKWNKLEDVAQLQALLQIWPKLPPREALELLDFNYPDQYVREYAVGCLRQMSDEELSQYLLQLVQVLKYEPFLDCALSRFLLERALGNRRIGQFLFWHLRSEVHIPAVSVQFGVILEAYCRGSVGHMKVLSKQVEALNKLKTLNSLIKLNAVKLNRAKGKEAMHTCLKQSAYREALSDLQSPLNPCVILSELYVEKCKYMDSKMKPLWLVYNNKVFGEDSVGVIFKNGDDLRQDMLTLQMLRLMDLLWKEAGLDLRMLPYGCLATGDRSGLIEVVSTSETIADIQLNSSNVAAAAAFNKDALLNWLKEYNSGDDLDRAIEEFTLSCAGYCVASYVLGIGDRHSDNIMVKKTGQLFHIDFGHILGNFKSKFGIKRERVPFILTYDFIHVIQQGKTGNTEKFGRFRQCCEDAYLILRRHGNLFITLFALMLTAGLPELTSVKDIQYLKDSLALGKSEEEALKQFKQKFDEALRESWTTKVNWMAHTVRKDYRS
# T7 sequence (P07332 whole entry): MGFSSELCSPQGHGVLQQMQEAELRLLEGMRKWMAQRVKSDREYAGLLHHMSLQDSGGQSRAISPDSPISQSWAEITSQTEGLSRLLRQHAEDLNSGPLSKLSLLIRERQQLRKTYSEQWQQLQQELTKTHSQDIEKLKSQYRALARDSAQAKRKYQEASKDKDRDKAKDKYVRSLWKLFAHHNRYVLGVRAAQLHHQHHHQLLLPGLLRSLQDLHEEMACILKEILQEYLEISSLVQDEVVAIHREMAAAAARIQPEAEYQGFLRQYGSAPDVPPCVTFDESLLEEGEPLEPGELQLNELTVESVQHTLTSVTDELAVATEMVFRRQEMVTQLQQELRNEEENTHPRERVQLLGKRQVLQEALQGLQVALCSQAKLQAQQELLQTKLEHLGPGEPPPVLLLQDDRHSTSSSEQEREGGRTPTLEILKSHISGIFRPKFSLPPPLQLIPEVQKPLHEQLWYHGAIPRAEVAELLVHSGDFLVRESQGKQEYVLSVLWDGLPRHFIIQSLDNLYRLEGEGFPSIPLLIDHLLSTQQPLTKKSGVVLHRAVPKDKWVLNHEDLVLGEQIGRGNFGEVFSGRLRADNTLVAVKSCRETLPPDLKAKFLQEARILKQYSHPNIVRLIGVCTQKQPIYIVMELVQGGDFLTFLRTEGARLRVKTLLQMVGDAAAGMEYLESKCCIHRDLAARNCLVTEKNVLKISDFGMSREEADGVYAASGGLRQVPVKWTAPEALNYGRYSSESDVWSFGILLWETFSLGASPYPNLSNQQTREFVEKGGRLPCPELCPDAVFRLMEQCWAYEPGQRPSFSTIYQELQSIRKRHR
# T10 sequence (P23458 whole entry): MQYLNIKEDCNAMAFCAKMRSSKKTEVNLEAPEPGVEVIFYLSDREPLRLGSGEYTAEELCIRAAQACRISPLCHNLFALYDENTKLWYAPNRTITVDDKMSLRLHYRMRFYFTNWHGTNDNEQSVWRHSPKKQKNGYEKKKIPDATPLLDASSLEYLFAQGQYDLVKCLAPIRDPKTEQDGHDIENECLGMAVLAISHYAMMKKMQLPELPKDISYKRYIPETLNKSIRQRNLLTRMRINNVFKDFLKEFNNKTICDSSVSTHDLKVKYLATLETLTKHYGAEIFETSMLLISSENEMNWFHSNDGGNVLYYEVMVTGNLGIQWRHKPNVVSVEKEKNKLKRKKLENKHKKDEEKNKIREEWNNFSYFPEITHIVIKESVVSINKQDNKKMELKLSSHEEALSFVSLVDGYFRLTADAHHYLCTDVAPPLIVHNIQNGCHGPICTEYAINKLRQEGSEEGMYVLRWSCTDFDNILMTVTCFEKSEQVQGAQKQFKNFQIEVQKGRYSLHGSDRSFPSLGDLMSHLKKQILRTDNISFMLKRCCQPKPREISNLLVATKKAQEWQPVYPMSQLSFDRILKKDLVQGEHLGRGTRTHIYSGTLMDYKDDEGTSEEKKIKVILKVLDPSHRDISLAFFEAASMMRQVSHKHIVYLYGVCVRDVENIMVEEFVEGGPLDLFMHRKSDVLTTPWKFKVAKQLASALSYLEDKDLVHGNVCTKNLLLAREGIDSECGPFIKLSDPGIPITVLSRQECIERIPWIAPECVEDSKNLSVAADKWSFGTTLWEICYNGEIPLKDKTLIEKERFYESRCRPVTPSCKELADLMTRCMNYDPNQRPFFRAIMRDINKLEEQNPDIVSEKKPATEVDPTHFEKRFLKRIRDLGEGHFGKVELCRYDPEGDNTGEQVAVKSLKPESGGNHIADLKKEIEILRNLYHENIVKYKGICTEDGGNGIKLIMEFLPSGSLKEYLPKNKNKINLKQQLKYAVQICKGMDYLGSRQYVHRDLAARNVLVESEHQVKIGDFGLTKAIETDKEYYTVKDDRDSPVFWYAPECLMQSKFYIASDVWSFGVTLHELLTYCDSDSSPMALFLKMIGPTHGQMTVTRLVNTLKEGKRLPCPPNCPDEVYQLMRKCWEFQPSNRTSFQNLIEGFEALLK
# T13 sequence (Q99755 whole entry): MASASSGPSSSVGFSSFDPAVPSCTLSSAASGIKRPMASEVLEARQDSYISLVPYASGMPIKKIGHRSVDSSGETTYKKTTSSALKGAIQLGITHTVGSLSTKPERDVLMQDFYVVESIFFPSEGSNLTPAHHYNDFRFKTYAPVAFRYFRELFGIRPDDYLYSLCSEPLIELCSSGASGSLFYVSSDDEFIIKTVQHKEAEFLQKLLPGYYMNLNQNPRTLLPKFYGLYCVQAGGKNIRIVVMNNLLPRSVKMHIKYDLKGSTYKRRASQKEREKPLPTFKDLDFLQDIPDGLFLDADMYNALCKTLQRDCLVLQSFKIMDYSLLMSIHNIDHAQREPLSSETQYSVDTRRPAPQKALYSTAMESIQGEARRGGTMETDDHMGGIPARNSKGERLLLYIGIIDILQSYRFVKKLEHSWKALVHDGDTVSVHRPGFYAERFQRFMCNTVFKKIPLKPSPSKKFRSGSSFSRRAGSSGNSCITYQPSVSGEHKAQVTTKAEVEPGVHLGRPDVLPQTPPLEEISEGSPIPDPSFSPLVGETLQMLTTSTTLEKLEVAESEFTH
"score (%) (KinomeScan kinase panel [10]; JAK1(Kin.Dom.2), 10 µM)","remaining binding at 10 µM (KinomeScan kinase panel [12]; SgK110, 10 µM) [%]",SMILES,remaining binding at 10 µM (KinomeScan kinase panel [1]) [%],remaining binding at 10 µM (KinomeScan kinase panel [2]) [%],score (%) (KinomeScan kinase panel [3]),remaining binding at 10 µM (KinomeScan kinase panel [4]) [%],remaining binding at 10 µM (KinomeScan kinase panel [5]) [%],remaining binding at 10 µM (KinomeScan kinase panel [6]) [%],remaining binding at 10 µM (KinomeScan kinase panel [7]) [%],score (%) (KinomeScan kinase panel [8]),remaining binding at 10 µM (KinomeScan kinase panel [9]) [%],score (%) (KinomeScan kinase panel [10]; [14]),"score (%) (KinomeScan kinase panel [10]; JAK1(JH2domain-pseudokinase), 10 µM)",remaining binding at 10 µM (KinomeScan kinase panel [11]) [%],"remaining binding at 10 µM (KinomeScan kinase panel [12]; kinase SgK110, 10 µM) [%]",remaining binding at 10 µM (KinomeScan kinase panel [13]) [%],"score (%) (KinomeScan kinase panel [10]; JAK1(Kin.Dom.1), 10 µM)",score (%) (KinomeScan kinase panel [10])
,,CCN1CCN(Cc2ccc(NC(=O)c3ccc(C)c(C#Cc4cccnc4)c3)cc2C(F)(F)F)CC1 [XMD15-44],> 30,0,0.55%,18,4.5,100,0.75,0,> 30,6.2,nb (Hits values higher than 30% were considered negative (no binding: nb)),0.85,100,79,,
11,29,"CCN1CCN(Cc2ccc(NC(=O)c3ccc(C)c(/C=C/c4cnc5[nH]ccc5c4Cl)c3)cc2C(F)(F)F)CC1 [HG-6-63-01, (E)-3-(2-(4-chloro-1H-pyrrolo[2,3-b]pyridin-5-yl)vinyl)-N-(4-((4-ethylpiperazin-1-yl)methyl)-3-(trifluoromethyl)phenyl)-4-methylbenzamide]",> 30,0.75,6.6%,> 30,> 30,> 30,0.55,0.2,> 30,,,11,,15,nb (Hits values higher than 30% were considered negative (no binding: nb)),
,,CCN1CCN(Cc2ccc(NC(=O)c3ccc(C)c(NC(=O)c4cncc(-c5cccs5)c4)c3)cc2C(F)(F)F)CC1 [ALW-II-41-27],20,3.3,nb (Hits values higher than 30% were considered negative (no binding: nb)),> 30,> 30,> 30,0.8,14,> 30,14,,7.6,> 30,> 30,,nb (Hits values higher than 30% were considered negative (no binding: nb))

# From PMC4457528, “Identification of Novel Small Molecule Inhibitors of Oncogenic RET Kinase” (PLoS ONE, 2015)
